Source: US10622572B2, “Organic thin-film transistor and method for manufacturing the same, material for organic thin-film transistor, composition for organic thin-film transistor, compound, and organic semiconductor film” (FUJIFILM Corporation, priority 2015, dated 2020)
Like-named read-outs stand apart in the source and are kept apart here.

Assay: Solubility in organic solvents
Type: physicochemical
Settings: organic solvent or mixture, thermodynamic from solid
[1] = 5 mg in 1 mL anisole, read-out: Solubility Anisole
[2] = 5 mg in 1 mL chloroform, read-out: Solubility Chloroform
[3] = 5 mg in 1 mL tetrahydrofuran, read-out: Solubility Tetrahydrofuran
[4] = 5 mg in 1 mL tetralin, read-out: Solubility Tetralin
[5] = 5 mg in 1 mL toluene, read-out: Solubility Toluene

| SMILES | solubility [1] [µg/mL] | solubility [2] [µg/mL] | solubility [3] [µg/mL] | solubility [4] [µg/mL] | solubility [5] [µg/mL] |
| --- | --- | --- | --- | --- | --- |
| CC(C)[Si](C#Cc1cc2c(cc(C#C[Si](C(C)C)(C(C)C)C(C)C)c3c4ccsc4ccc23)c2ccc3sccc3c12)(C(C)C)C(C)C [Compound 1] | > 5000 | > 5000 | > 5000 | > 5000 | > 5000 |
| CC(C)[Si](C#Cc1cc2c(cc(C#C[Si](C(C)C)(C(C)C)C(C)C)c3c2ccc2ccsc23)c2ccc3ccsc3c12)(C(C)C)C(C)C [Compound 2] | > 5000 | > 5000 | > 5000 | > 5000 | > 5000 |
| CC(C)[Si](C#Cc1cc2c(cc(C#C[Si](C(C)C)(C(C)C)C(C)C)c3c4cc(F)sc4ccc23)c2ccc3sc(F)cc3c12)(C(C)C)C(C)C [Compound 3] | > 5000 | > 5000 | > 5000 | > 5000 | > 5000 |
| CC(C)[Si](C#Cc1cc2c(cc(C#C[Si](C(C)C)(C(C)C)C(C)C)c3c2ccc2cc(F)sc23)c2ccc3cc(F)sc3c12)(C(C)C)C(C)C [Compound 4] | > 5000 | > 5000 | > 5000 | > 5000 | > 5000 |
